Reference: ChEMBL document CHEMBL3991601, “The target landscape of clinical kinase drugs” (Science, 2017)
Calls of active or inactive are those of the source. Rule as the data show it, for most assays here: actives have a measured Kd and inactives only a lower limit.

How the values were obtained:
[1] = target: Calcium/calmodulin-dependent protein kinase kinase 2 (Homo sapiens, UniProt Q96RR4)
[2] = target: T1, Ephrin type-B receptor 3 (Homo sapiens, UniProt P54753)
T1 sequence (P54753 whole entry): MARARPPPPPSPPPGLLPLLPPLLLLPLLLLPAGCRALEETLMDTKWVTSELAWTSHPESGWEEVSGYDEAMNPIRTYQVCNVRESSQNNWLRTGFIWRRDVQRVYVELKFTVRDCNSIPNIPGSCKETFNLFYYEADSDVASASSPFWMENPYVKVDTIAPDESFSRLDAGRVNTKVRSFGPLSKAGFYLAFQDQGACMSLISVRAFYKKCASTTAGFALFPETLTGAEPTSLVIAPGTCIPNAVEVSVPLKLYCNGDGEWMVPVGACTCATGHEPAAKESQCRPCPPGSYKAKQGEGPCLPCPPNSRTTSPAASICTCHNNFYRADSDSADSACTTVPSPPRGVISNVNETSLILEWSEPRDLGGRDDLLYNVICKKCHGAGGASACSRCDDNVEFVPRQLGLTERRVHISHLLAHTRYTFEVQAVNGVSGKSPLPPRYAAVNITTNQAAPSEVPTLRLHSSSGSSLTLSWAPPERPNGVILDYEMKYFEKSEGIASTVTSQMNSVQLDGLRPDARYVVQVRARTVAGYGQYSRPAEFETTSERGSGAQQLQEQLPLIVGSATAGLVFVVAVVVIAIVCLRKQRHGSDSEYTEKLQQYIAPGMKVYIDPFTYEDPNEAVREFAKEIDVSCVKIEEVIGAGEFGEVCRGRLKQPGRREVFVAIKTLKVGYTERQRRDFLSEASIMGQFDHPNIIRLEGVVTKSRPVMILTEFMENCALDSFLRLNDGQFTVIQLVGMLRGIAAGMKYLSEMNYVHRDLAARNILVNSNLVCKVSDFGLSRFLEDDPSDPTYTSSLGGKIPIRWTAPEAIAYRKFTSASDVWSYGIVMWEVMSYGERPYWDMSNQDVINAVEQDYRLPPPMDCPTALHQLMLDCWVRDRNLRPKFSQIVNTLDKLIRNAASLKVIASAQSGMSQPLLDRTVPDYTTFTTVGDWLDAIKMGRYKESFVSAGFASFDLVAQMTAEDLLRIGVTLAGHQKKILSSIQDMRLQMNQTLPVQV

[3] = target: T2, Receptor-type tyrosine-protein kinase FLT3 (Homo sapiens, UniProt P36888)
T2 sequence (P36888 whole entry): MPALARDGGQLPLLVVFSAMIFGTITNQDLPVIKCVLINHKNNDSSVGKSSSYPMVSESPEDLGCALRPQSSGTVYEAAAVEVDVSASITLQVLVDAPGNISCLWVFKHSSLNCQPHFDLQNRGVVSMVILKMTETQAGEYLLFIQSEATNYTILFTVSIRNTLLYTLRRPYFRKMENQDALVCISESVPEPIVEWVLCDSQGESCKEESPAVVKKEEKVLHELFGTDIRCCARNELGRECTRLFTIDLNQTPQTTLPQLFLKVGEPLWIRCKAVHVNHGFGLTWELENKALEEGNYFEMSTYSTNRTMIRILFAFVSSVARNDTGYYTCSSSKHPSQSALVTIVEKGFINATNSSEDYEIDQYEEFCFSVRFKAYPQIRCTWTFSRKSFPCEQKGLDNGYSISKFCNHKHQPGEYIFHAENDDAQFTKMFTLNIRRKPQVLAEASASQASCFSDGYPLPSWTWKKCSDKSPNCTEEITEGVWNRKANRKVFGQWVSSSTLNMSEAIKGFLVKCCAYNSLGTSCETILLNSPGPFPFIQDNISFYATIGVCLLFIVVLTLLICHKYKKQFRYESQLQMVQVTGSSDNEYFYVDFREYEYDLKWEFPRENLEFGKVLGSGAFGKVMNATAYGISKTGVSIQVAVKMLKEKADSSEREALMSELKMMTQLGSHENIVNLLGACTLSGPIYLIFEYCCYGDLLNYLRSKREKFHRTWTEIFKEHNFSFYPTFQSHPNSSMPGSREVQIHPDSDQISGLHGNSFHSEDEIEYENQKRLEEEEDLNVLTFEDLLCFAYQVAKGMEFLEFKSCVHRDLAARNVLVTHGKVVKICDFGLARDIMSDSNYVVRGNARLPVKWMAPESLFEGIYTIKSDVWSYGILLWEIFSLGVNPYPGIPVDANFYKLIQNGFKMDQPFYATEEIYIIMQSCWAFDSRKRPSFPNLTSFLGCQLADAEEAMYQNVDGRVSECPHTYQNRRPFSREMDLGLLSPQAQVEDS

[4] = target: Protein kinase C delta type (Homo sapiens, UniProt Q05655)
[5] = target: T3, General transcription and DNA repair factor IIH helicase subunit XPD (Homo sapiens, UniProt P18074); settings: read-out: Kd apparent; k-562, colo 205, sk-n-be(2) and mv-4-11
T3 sequence (P18074 whole entry): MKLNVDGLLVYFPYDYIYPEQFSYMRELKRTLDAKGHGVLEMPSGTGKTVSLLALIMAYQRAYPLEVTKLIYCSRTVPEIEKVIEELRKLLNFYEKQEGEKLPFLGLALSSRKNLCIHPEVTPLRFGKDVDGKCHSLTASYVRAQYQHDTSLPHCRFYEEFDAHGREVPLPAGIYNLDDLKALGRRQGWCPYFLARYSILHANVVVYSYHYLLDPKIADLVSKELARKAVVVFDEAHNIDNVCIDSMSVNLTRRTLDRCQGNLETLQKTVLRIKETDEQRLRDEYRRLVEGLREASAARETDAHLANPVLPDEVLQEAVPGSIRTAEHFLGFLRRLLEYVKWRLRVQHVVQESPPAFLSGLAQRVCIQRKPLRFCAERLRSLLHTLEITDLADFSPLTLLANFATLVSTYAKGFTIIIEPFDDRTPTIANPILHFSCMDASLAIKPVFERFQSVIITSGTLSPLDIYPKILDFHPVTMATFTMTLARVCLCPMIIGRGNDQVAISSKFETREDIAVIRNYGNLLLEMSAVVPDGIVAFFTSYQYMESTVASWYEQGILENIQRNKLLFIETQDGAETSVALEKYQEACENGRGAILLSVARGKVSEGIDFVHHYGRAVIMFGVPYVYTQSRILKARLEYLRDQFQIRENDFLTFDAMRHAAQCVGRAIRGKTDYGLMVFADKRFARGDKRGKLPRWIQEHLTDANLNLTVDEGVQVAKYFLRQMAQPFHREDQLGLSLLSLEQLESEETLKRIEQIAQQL
Also: in the data inactive means no Kd found up to 30 µM.

Calcium/calmodulin-dependent protein kinase kinase 2, sequence (Q96RR4 whole entry): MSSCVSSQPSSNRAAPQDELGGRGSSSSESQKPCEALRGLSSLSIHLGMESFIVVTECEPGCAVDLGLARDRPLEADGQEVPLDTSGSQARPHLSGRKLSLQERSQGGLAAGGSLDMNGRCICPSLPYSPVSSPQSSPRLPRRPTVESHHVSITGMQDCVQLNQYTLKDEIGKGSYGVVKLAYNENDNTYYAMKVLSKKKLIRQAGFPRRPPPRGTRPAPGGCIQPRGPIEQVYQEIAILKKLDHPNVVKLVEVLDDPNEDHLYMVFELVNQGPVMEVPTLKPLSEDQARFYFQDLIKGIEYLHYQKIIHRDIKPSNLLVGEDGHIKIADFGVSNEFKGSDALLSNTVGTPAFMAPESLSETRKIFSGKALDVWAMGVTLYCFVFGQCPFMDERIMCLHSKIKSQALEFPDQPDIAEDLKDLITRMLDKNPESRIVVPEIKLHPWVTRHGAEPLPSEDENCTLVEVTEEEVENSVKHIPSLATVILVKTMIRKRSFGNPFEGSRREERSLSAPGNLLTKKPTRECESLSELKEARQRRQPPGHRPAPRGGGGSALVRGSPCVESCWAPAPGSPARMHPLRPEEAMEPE
Protein kinase C delta type, sequence (Q05655 whole entry): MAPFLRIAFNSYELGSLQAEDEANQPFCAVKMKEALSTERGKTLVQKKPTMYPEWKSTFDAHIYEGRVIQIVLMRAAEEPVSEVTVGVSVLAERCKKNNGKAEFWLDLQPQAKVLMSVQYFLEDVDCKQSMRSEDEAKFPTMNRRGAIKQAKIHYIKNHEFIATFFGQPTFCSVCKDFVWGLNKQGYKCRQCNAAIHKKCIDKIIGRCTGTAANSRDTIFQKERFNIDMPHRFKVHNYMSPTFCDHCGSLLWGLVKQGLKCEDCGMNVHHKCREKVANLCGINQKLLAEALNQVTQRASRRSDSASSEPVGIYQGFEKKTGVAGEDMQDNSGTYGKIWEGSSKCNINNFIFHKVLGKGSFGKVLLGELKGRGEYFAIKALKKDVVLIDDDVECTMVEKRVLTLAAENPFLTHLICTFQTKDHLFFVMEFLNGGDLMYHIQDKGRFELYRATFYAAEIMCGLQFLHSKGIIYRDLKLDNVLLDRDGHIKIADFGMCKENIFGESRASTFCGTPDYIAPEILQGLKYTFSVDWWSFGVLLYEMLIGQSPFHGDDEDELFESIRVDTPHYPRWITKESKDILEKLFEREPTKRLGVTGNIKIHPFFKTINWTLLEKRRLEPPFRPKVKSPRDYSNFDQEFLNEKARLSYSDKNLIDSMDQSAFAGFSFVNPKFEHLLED

Kd [1]	Kd [2]	Kd [3]	Kd [4]	Kd [5]	SMILES
> 30 µM (inactive)	> 30 µM (inactive)	> 30 µM (inactive)	> 30 µM (inactive)	> 30 µM (inactive)	C[C@@H](Oc1cc(C(=O)Nc2ccc(C(=O)N3CCN(C)CC3)cc2)nnc1N)c1c(Cl)ccc(F)c1Cl
> 30 µM (inactive)	> 30 µM (inactive)	> 30 µM (inactive)	2.47 µM (active)	> 30 µM (inactive)	C[C@H]1CNCCCN1S(=O)(=O)c1cccc2cncc(F)c12
> 30 µM (inactive)	> 30 µM (inactive)	0.148 µM (active)	> 30 µM (inactive)	> 30 µM (inactive)	CCNC(=O)C#Cc1ccc2c(c1)NC(=O)/C2=C(\Nc1ccc(CN(C)C)cc1)c1ccccc1
> 30 µM (inactive)	> 30 µM (inactive)	> 30 µM (inactive)	> 30 µM (inactive)	> 30 µM (inactive)	C=CC(=O)N1CCC[C@H](n2c(=O)n(-c3ccc(Oc4ccccc4)cc3)c3c(N)ncnc32)C1
> 30 µM (inactive)	> 30 µM (inactive)	7.04 µM (active)	> 30 µM (inactive)	> 30 µM (inactive)	Cc1nc2cc(-c3nn(C(C)C)c4ncnc(N)c34)ccc2o1
> 30 µM (inactive)	> 30 µM (inactive)	0.465 µM (active)	5.08 µM (active)	> 30 µM (inactive)	COCc1c(-c2ccc(NC(=O)Nc3cc(C(F)(F)F)ccc3F)c(F)c2)c2c(N)ncnn2c1CN1CCOCC1
> 30 µM (inactive)	> 30 µM (inactive)	> 30 µM (inactive)	> 30 µM (inactive)	> 30 µM (inactive)	Nc1ncnc2c1c(-c1cccc(OCc3ccccc3)c1)cn2[C@H]1C[C@@H](CN2CCC2)C1 [AEW-541]
> 30 µM (inactive)	–	–	–	> 30 µM (inactive)	COc1cc(Nc2ncc3c(n2)-c2ccc(Cl)cc2C(c2c(F)cccc2OC)=NC3)ccc1C(=O)O [ALISERTIB]
> 30 µM (inactive)	> 30 µM (inactive)	> 30 µM (inactive)	> 30 µM (inactive)	> 30 µM (inactive)	Cc1nc(NC(=O)N2CCC[C@H]2C(N)=O)sc1-c1ccnc(C(C)(C)C(F)(F)F)c1 [ALPELISIB]
> 30 µM (inactive)	> 30 µM (inactive)	–	> 30 µM (inactive)	> 30 µM (inactive)	O=C(Nc1c[nH]nc1-c1nc2cc(CN3CCOCC3)ccc2[nH]1)NC1CC1 [AT-9283]
–	–	–	–	> 30 µM (inactive)	CNC(=O)c1ccccc1Sc1ccc2c(/C=C/c3ccccn3)n[nH]c2c1 [AXITINIB]
> 30 µM (inactive)	> 30 µM (inactive)	> 30 µM (inactive)	> 30 µM (inactive)	–	COc1c(OCCCN2CCOCC2)ccc2c1N=C(NC(=O)c1cnc(N)nc1)N1CCN=C21 [COPANLISIB]
–	–	–	–	> 30 µM (inactive)	C[C@@H](Oc1cc(-n2cnc3ccc(CN4CCN(C)CC4)cc32)sc1C(N)=O)c1ccccc1C(F)(F)F [GSK-461364]
> 30 µM (inactive)	> 30 µM (inactive)	–	> 30 µM (inactive)	–	CCn1cc(-c2ccnc3[nH]c(-c4cccc(CN(C)C)c4)cc23)c(-c2ccc(NC(=O)N(C)C)cc2)n1 [GSK-1070916]
–	–	0.054 µM (active)	> 30 µM (inactive)	–	CNC(=O)c1nn(C)c2c1C(C)(C)Cc1cnc(Nc3ccc(N4CCN(C)CC4)cc3)nc1-2 [MILCICLIB]
–	> 30 µM (inactive)	–	–	> 30 µM (inactive)	Cc1[nH]c(/C=C2\C(=O)Nc3ccccc32)c(C)c1CCC(=O)O [ORANTINIB]
> 30 µM (inactive)	> 30 µM (inactive)	–	–	> 30 µM (inactive)	NC(=O)c1c(OCc2c(F)cc(Br)cc2F)nsc1NC(=O)NCCCCN1CCCC1 [OSI-632]
2.19 µM (active)	> 30 µM (inactive)	–	–	> 30 µM (inactive)	CC(=O)NCC(=O)N1[C@@H]2CC[C@H]1c1ccc(Nc3ncc(C(F)(F)F)c(NC4CCC4)n3)cc12 [PF-03814735]
–	–	–	–	> 30 µM (inactive)	O=C(NOCCO)c1cc(CN2OCCCC2=O)c(F)c(F)c1Nc1ccc(I)cc1F [RO-4987655]
–	–	–	–	> 30 µM (inactive)	N#CC[C@H](C1CCCC1)n1cc(-c2ncnc3[nH]ccc23)cn1 [RUXOLITINIB]
> 30 µM (inactive)	–	0.554 µM	> 30 µM (inactive)	–	CCS(=O)(=O)c1cccc(-c2cc(C(=O)NC3CCN(C)CC3)c(C)c3[nH]c4ncc(C)cc4c23)c1 [TAK-901]

SMILES	Kd [1]	Kd [2]	Kd [3]	Kd [4]	Kd [5]
CC(=O)c1cnc2ccc(-c3cc(Cl)c(O)c(Cl)c3)nc2c1N[C@H]1CC[C@H](CN(C)C)CC1	0.126 µM (active)	> 30 µM (inactive)	> 30 µM (inactive)	–	> 30 µM (inactive)
CC(C)(C)c1nc(-c2cccc(NS(=O)(=O)c3c(F)cccc3F)c2F)c(-c2ccnc(N)n2)s1 [DABRAFENIB]	> 30 µM (inactive)	> 30 µM (inactive)	–	> 30 µM (inactive)	> 30 µM (inactive)
Cn1cc(C2=C(c3cn(C4CCN(Cc5ccccn5)CC4)c4ccccc34)C(=O)NC2=O)c2ccccc21 [ENZASTAURIN]	–	–	–	–	> 30 µM (inactive)
O=C(Nc1nc2cccc(-c3ccc(CN4CCS(=O)(=O)CC4)cc3)n2n1)C1CC1 [FILGOTINIB]	3.63 µM (active)	> 30 µM (inactive)	> 30 µM (inactive)	> 30 µM (inactive)	–
O=C(Nc1cc(C(F)(F)F)cc(C(F)(F)F)c1)c1cc(Cl)ccc1O [IMD-0354]	> 30 µM (inactive)	> 30 µM (inactive)	–	–	> 30 µM (inactive)
CCOc1cc2ncc(C#N)c(Nc3ccc(F)c(Cl)c3)c2cc1NC(=O)/C=C/CN(C)C [PELITINIB]	1.39 µM (active)	> 30 µM (inactive)	> 30 µM (inactive)	–	> 30 µM (inactive)
CNC(=O)c1cc(Oc2ccc(NC(=O)Nc3cc(C(C)(C)C)nn3-c3ccc4ncccc4c3)c(F)c2)ccn1 [REBASTINIB]	> 30 µM (inactive)	> 30 µM (inactive)	–	> 30 µM (inactive)	> 30 µM (inactive)
